Data from patent publication US7449495B2, “Retinoid derivatives with antiangiogenic, antitumoral and proapoptotic activities” (Sigma-Tau Industrie Farmaceutiche Riunite S.p.A., priority 2001, dated 2008).

Tests used:
[1] = tested on: Human colon adenocarcinoma LoVo; experiment: Cytotoxicity test (sulphorodamine B), LoVo; type: cell-based; conditions: 24 h incubation, survival 48 h after removal, read-out: IC50
Text: (§1) Different cell lines deriving from solid tumors were also used. • 1. Human prostate carcinoma PC3 and DU145. These cell lines were maintained in RPMI 1640 medium containing 10% FCS, 1% sodium pyruvate and 1% glutamine; • 2. Human colon adenocarcinoma LoVo. This cell line was maintained in HAM's F-12 medium, containing 10% FCS and 1% glutamine. • 3. Human ovarian carcinoma such as A2780 and A2780/Dx, sensitive and resistant to drugs, respectively (doxorubicin, taxol, etoposide, vincristine); IGROV-1 and IGROV-1/Pt, sensitive and resistant to platinum-based chemotherapy, respectively, were maintained in RPMI 1640 medium containing 10% FCS, 1% sodium pyruvate and 1% glutamine; • 4. Human melanoma MeWo and MeS 2.21, glioblastoma GBM, no small cell lung carcinomas A431, NCI—H460, osteosarcomas SAOS and U2OS were maintained in RPMI 1640 medium containing 10% FCS, 1% sodium pyruvate and 1% glutamine.
(§2) The cytotoxicity tests were carried out using NB4 or HL-60 cells in suspension (10000/well). The cells were seeded in a volume of 250 μl in 96 well plates and incubated for 24 hours at 37° C. […] The optical density was measured using a Multiskan spectrophotometer at 540 nm. […]
(§3) Cell survival was determined by incubation with ST1926 for 24 hours, 48 hours after the removal of the compound. […]

[2] = tested on: no small cell lung carcinoma A431; experiment: Cytotoxicity test (sulphorodamine B), A431; type: cell-based; conditions: Homo sapiens, A-431, 24 h incubation, survival 48 h after removal
Text: as §1, §2, §3

[3] = tested on: no small cell lung carcinoma NCI-H460; experiment: Cytotoxicity test (sulphorodamine B), NCI-H460; type: cell-based; conditions: Homo sapiens, 24 h incubation, survival 48 h after removal
Text: as §1, §2, §3

osteosarcoma U2OS = experiment: Cytotoxicity test (sulphorodamine B), U2OS; type: cell-based; conditions: Homo sapiens, 24 h incubation, survival 48 h after removal
Text: as §1, §2, §3

[4] = tested on: 3LL murine Lewis lung carcinoma; experiment: Antitumoral activity in murine Lewis lung carcinoma model 3LL; type: in vivo, C57BL/6J mice; conditions: 10 mg/kg po, qdx5x3w
Experimental: Murine pulmonary adenocarcinoma Madison 109 cells (M109) were maintained by s.c. passage of tumor fragments. The day of inoculation, the cell suspension was injected i.m. in the rear left limb of a 20 g male BALB/c mouse at a density of 3×10^5 cells/mouse. 3LL murine Lewis lung carcinoma was routinely maintained by i.m. passages (every 10-14 days) of 1×10^5 cells/mouse in C57BL/6J mice. For antitumor activity experiments, tumors were excised from donor mice and after mechanical desegregation and enzymatic digestion tumor cell viability was assessed by the trypan blue dye exclusion test. Then, 1×10^5 cells/100 μl/mouse were injected i.m. into the right hind leg muscle of C57BL/6J mice.
Tumor dimension measurements were performed using a digital calliper (Vernier Caliper) from the day in which the mass became measurable, twice weekly. The tumor mass was assessed from the size of the two principal dimensions (length and breadth), expressed in mm, applying the formula (length×breadth^2)/2 that is, the tumor volume in mm3. For every experimental group the percentage of inhibition of tumor volume (TVI %) was calculated, with respect to that of the control that is (100−(T/C %). TVI was evaluated 2 days after the final administration of ST1926.
The mean survival time (MST) was also measured and the increase in mean life-span expressed as ILS % (increase of life span) calculated as (MSTT/MSTC)×100−100.
The comparison between the values of TVI and of survival time, obtained for each group were performed with the non parametric Mann Whitney test for non paired data, using the Instat software from GraphPad inc. […]
The mice (8 for each group) were weighed prior to each treatment, firstly, so as to be able to administer the correct quantity of substance, based on the eventual variations in weight observed throughout the period of drug administration, and also to be able to register the maximum weight loss throughout the treatment (BWL % max).

[5] = tested on: ornithine decarboxylase in mouse epidermis; conditions: in vivo; cited from earlier work

In the case of O=C(O)/C=C/c1ccc(-c2ccc(O)c(C34CC5CC(CC(C5)C3)C4)c2)cc1 [ST1926, E-4-(3-(1-adamantyl)-4-hydroxyphenyl)cinnamic acid], the IC50 [1] is reported as 0.24 µM, the IC50 [2] is reported as 0.25 µM and the IC50 [3] is reported as 0.19 µM. For the same compound, the IC50 (osteosarcoma U2OS) was 0.26 µM, the “BWL % Max” value [4] was 7% and the ILS % [4] was 52%. For the same compound, the “MST (range days)” value [4] was “*32 (24-42) days” and the “activity in the ODC assay compared with compound 1 (in words)” value [5] was “lower activities”.
